Source: patent US9757408B2 (Hayashibara Co., Ltd., priority 2010, dated 2017)
Marks after values point to notes of the source that are not given here.

Legend:
[1] = mouse, in vivo
Method: The eight mice in each five groups were sensitized (may be simply called “sensitization”, hereinafter) with picryl chloride (Tokyo Chemical Industry Co., Ltd., Tokyo, Japan) in such a manner of dropping a solution, which had been dissolved in a mixture solution of ethanol and acetone in a volume ratio of 4:1 at a concentration of 5%, on the shaved abdominal skin of the mice and on four footpads in a total volume of 150 μL/mouse, and spreading the solution over the abdominal skin and the foot pads by using a micropipette similarly as above.
Throughout the test period, the mice were weighed once a week. The judgement of the conditions of skin inflammation was conducted twice a week every Tuesday and Friday from the 3rd induction for the degrees of four items of red flare/bleeding, edema (swelling of earflap), chafing/loss of tissue, and the formation of scar tissue/drying, and scored based on the criterion of four grades shown in Table 17; “0” (symptomless), “1” (mild), “2” (moderate), and “3” (severe). The total scores of each evaluation items for each group were averaged for use as a skin score.

[2] = test system: TNF-α production from THP-1 cells; adenosine receptors A1R, A2AR, A2BR, A3R; experiment: TNF-α production from THP-1 cells, LPS + IFN-γ, ANO with adenosine receptor antagonists (Experiment 5); assay type: cell-based; settings: LPS + human IFN-γ, ANO 5 μM
From the text: USA; ZM241385, commercialized by Tocris Bioscience, MSY USA; MRS1754, commercialized by Sigma-Aldrich Corporation, St. Louis, Mo. […] The results are in Table 5 in parallel.

BALB/c mice = experiment: Safeness of injection preparations, i.v. once a day for seven days (Example 2); assay type: in vivo; settings: mouse, in vivo, iv
Method: The safeness of the preparations prepared in the above was evaluated.

[3] = test system: mouse intraperitoneal macrophages; experiment: Cell viability of mouse intraperitoneal macrophages, AlamarBlue (Experiment 2); assay type: cell-based; settings: LPS 2 μg/mL, IFN-γ 10 IU/mL, control = 100%
NHDF cells = experiment: Cell survival rate of NHDF cells after hydrogen peroxide oxidant stress (Experiment 18); assay type: cell-based, human
Method: To the wells, which had not been treated with hydrogen peroxide, was added 100 μL/well of Hanks' solution. […] Thereafter, the supernatant in each well was removed by sucking, and “CELL COUNTING KIT-8”, a product name of a reagent solution for counting viable cells, commercialized by Dojindo Molecular Technologies, Inc., Kumamoto, Japan, which had been diluted with D-MEM medium supplemented with 10% FCS by 20-times, was added to the wells in an amount of 100 μL/well, followed by incubating the cells in a 5% v/v CO2 incubator at 37° C. for two hours. Finally, the microplates were measured for absorbance at a wavelength of 450 nm on a plate reader. For each well, a relative absorption value was determined when the absorbance of a well of NHDF cells, which had been cultured by the addition of only medium, was regarded as 100, and it is expressed as a cell survival rate (%) in Table 21.

[4] = test system: TNF-α production from mouse intraperitoneal macrophages; experiment: TNF-α production from mouse intraperitoneal macrophages, LPS + IFN-γ, ELISA (Experiment 2); assay type: cell-based; settings: for TNF-α Concentration: LPS 2 μg/mL, IFN-γ 10 IU/mL
Method: The resulting cell suspension was added to a dish for tissue culture (product code: 353003, commercialized by Becton Drive Franklin Lakes, N.J., USA), and incubated in a 5% v/v CO2 incubator at 37° C. for 1.5 hours to attach the peritoneal exudate macrophages on the surface of the dish.
TNF-α in each collected supernatant was assayed with enzyme-linked immunosorbent assay (ELISA) (Experiment groups 2 to 5). […] The results are in Table 2 in parallel. The test for each Experiment group was conducted by using three wells. The assay for TNF-α was conducted on an ELISA using a commercialized rat anti-mouse TNF-α antibody (“Rat anti-mouse/rat TNF antibody” (product code: 551225), a product name of Becton Drive Franklin Lakes, N.J., USA) as a solid phase antibody; a commercialized biotin-labeled rat anti-mouse TNF-α antibody (“Biotin-Labeled Rat Anti-Mouse TNF Antibody”, product code: 554415, commercialized by Becton Drive Franklin Lakes, N.J., USA) as a secondary antibody; and an HRPO-labeled streptavidin.

[5] = test system: IL-10 in serum of mice administered with LPS; experiment: Serum IL-10 in LPS-administered mice, oral administration (Experiment 11); assay type: in vivo, BALB/c mice; settings: LPS 18 mg/kg i.p., serum 90 min after LPS
Method: The seven mice in another one group were orally administered through a gastric tube with 3′-glucosyl-adenosine N1-oxide, which had been dissolved in PBS, at a dose of 200 mg/kg body weight in a liquid volume of 0.2 mL/head (Experiment group 4). The seven mice in the remaining one group were orally administered through a gastric tube with PBS in a liquid volume of 0.2 mL/head (Experiment group 1). All the mice were intraperitoneally administered with an LPS specimen derived from E. coli (055:B5), commercialized by Sigma-Aldrich Corporation, St. Louis, Mo. USA, which had been dissolved in PBS, at a dose of 18 mg/kg body weight (Experiment groups 1 to 4). For each group, the mice were collected blood from their tail veins at 90 min after administering LPS, followed by assaying the concentrations of TNF-α, IL-6, and IL-10 contained in serum by the same method as in […].

[6] = test system: mice with bacterial shock induced by LPS; experiment: LPS bacterial shock mice, survival, oral administration (Experiment 10); assay type: in vivo, BALB/c mice; settings: LPS 18 mg/kg i.p.

Compound: Nc1ncnc2c1ncn2[C@@H]1O[C@H](CO)[C@@H](O)[C@H]1O [AN, adenosine]
- body weight of mice applied with the gel [1]: reduction of increasing rate of their body weights

Compound: Nc1c2ncn([C@@H]3O[C@H](CO)[C@@H](O)[C@H]3O)c2nc[n+]1[O-] [ANO, adenosine N1-oxide]
- TNF-α Concentration ([2]; no antagonist): 97 pg/mL
- TNF-α Concentration ([2]; pretreated with DPCPX 0.5 μM): 132** pg/mL
- TNF-α Concentration ([2]; pretreated with DPCPX 1 μM): 130** pg/mL
- TNF-α Concentration ([2]; pretreated with DPCPX 5 μM): 129** pg/mL
- TNF-α Concentration ([2]; pretreated with DPCPX 10 μM): 133** pg/mL
- TNF-α Concentration ([2]; pretreated with MRS1220 0.5 μM): 105** pg/mL
- TNF-α Concentration ([2]; pretreated with MRS1220 1 μM): 105** pg/mL
- TNF-α Concentration ([2]; pretreated with MRS1220 5 μM): 105** pg/mL
- TNF-α Concentration ([2]; pretreated with MRS1220 10 μM): 102** pg/mL
- TNF-α Concentration ([2]; pretreated with MRS1754 0.5 μM): 118** pg/mL
- TNF-α Concentration ([2]; pretreated with MRS1754 1 μM): 121** pg/mL
- TNF-α Concentration ([2]; pretreated with MRS1754 5 μM): 121** pg/mL
- TNF-α Concentration ([2]; pretreated with MRS1754 10 μM): 103* pg/mL
- TNF-α Concentration ([2]; pretreated with ZM241385 0.5 μM): 135** pg/mL
- TNF-α Concentration ([2]; pretreated with ZM241385 1 μM): 137** pg/mL
- TNF-α Concentration ([2]; pretreated with ZM241385 5 μM): 135** pg/mL
- TNF-α Concentration ([2]; pretreated with ZM241385 10 μM): 132** pg/mL
- change in body weight and other appearance versus PBS (BALB/c mice): no significant change
- clinical laboratory test results that provide indices of renal and liver functions versus PBS (BALB/c mice): no difference
- Cell viability ([3]; ANO 0.006 μM): 100%
- Cell viability ([3]; ANO 0.031 μM): 100%
- Cell viability ([3]; ANO 0.063 μM): 100%
- Cell viability ([3]; ANO 0.313 μM): 100%
- Cell survival rate (NHDF cells; addition of hydrogen peroxide: No, 3.12 μM): 100%
- Cell survival rate (NHDF cells; addition of hydrogen peroxide: No, 6.25 μM): 100%
- Cell survival rate (NHDF cells; addition of hydrogen peroxide: No, 12.5 μM): 100%
- Cell survival rate (NHDF cells; addition of hydrogen peroxide: No, 25.0 μM): 100%
- Cell survival rate (NHDF cells; addition of hydrogen peroxide: Yes, 3.1 μM): 35%
- Cell survival rate (NHDF cells; addition of hydrogen peroxide: Yes, 6.3 μM): 81%
- Cell survival rate (NHDF cells; addition of hydrogen peroxide: Yes, 12.5 μM): 83%
- Cell survival rate (NHDF cells; addition of hydrogen peroxide: Yes, 25.0 μM): 89%
- influence on the cell survival rate without hydrogen peroxide (NHDF cells; concentrations used in this experiment (Experiment groups 7 to 10)): No influence
- Cell survival rate (NHDF cells; hydrogen peroxide 200 μM, then ANO 25 μM for 24 hours, medium only = 100): 89%
- TNF-α Concentration ([4]; ANO 0.006 μM): 1573 pg/mL
- TNF-α Concentration ([4]; ANO 0.031 μM): 1637 pg/mL
- TNF-α Concentration ([4]; ANO 0.063 μM): 1136 pg/mL
- TNF-α Concentration ([4]; ANO 0.313 μM): 545 pg/mL
- concentration range in which the production of TNF-α was significantly inhibited ([4]; mouse intraperitoneal macrophages, LPS and IFN-γ): ≥ 0.063 µM
- Amount of IL-10 ([5]; oral 100 mg/kg): 5.6* ng/mL
- Amount of IL-10 ([5]; oral 200 mg/kg): 9.7** ng/mL
- Survival rate (%) of mice, 22 Hours ([6]; oral 400 mg/kg (200 × 2 shots)): 75%
- Survival rate (%) of mice, 31 Hours ([6]; oral 400 mg/kg (200 × 2 shots)): 75%
- Survival rate (%) of mice, 46 Hours ([6]; oral 400 mg/kg (200 × 2 shots)): 50%
- Survival rate (%) of mice, 55 Hours ([6]; oral 400 mg/kg (200 × 2 shots)): 50%
- Survival rate (%) of mice, 72 Hours ([6]; oral 400 mg/kg (200 × 2 shots)): 100%
- Survival rate (%) of mice, 79 Hours ([6]; oral 400 mg/kg (200 × 2 shots)): 50%
- Survival rate (%) of mice, 22 Hours ([6]; oral 600 mg/kg (200 × 3 shots)): 87.5%
- Survival rate (%) of mice, 31 Hours ([6]; oral 600 mg/kg (200 × 3 shots)): 87.5%
- Survival rate (%) of mice, 46 Hours ([6]; oral 600 mg/kg (200 × 3 shots)): 87.5%
- Survival rate (%) of mice, 55 Hours ([6]; oral 600 mg/kg (200 × 3 shots)): 87.5%
- Survival rate (%) of mice, 72 Hours ([6]; oral 600 mg/kg (200 × 3 shots)): 100%
- Survival rate (%) of mice, 79 Hours ([6]; oral 600 mg/kg (200 × 3 shots)): 75%
